In patent publication US5108996A, “19-nor-3-keto steroids” (Roussel Uclaf, priority 1989, dated 1992):

Legend:
[1] = system: lipid peroxidation (MDA formation) in rat liver microsomes; experiment: MDA formation triggered enzymatically by NADPH and carbon tetrachloride in liver microsomes of phenobarbital-pretreated rats (antioxidant activity); format: biochemical; conditions: NADPH/CCl4
Experimental: (§1) The antioxidant activity was tested in vitro by the test of formation of malondialdehyde (MDA) which measures lipid peroxidation triggered: either a) non-enzymatically by ferrous sulfate, in 1) brain homogenates, or 2) rat liver microsomes or b) enzymatically by NADPH and carbon tetrachloride in rat liver microsomes.
2-MDA formation was measured on liver microsomes of rats pretreated with phenobarbital (80 mg/kg in 3 i.p. injections), prepared as described above. The microsomes were incubated for 15 minutes at 37° C. in 1 ml containing 0.1M pH 7.4 phosphate buffer, 1 mg of microsomal protein, 5 microliters of ethanol containing or not containing the test product and 5 microliters of carbon tetrachloride (5.5 mM final) after the addition of 50 microliters of NADPH solution in the phosphate buffer (1 mM final). The reaction was stopped and the assay was then performed under the conditions described above.

[2] = system: lipid peroxidation (MDA formation) in brain homogenates; experiment: MDA formation triggered non-enzymatically by ferrous sulfate in rat brain homogenates (antioxidant activity); format: biochemical, S-D rat; conditions: brain homogenate, 60 min 37° C
Experimental: as §1
1.1-MDA formation was measured on 10-fold diluted (V/V) homogenates of brains of S-D (200 g), prepared in Krebs buffer pH 7.4 by the conditions described in J. Biol. Chem. Vol., 262 (1987), p. 10438 to 10440. 1 ml of homogenate was incubated for 60 minutes at 37° C. in the presence of 25 microliters of ethanol or water or a mixture of the two, depending on the product, containing or not containing the test product, after the addition of 25 microliters of ferrous sulfate solution prepared immediately before use in water outgassed with argon ([…]). 0.25 ml of incubated mixture was withdrawn and 1.5 ml of 1% strength phosphoric acid, 0.25 ml of a solution containing 200 microliters of deferoxamine (Desferal®, Ciba Geigy) in water, 10 microliters of butylated hydroxytoluene (BHT) at a concentration of 8.7 mg/ml in ethanol and 0.5 ml of thiobarbituric acid (TBA) at a concentration of 0.6% in water were added. The mixture was heated to 100° C. for 45 minutes and cooled. 4 ml of n-butanol were added and the mixture was centrifuged for 15 minutes at 4000 rpm and the OD of the supernatant fraction was then read at 535 nm. The reaction blanks in the absence of Fe^++ were incubated under the same conditions. The percentage inhibition was calculated as follows: […]

[3] = system: lipid peroxidation (MDA formation) in rat liver microsomes; experiment: MDA formation triggered non-enzymatically by ferrous sulfate in rat liver microsomes (antioxidant activity); format: biochemical, S-D rat; conditions: 15 min 37° C
Experimental: as §1
1.2-MDA formation was measured on liver microsomes of S-D rats (200 g)
prepared from the fraction sedimented at 100,000 G of a liver homogenate
in a sucrose buffer, of which the fraction remaining insoluble at 100,000
G in 100 mM sodium pyrophosphate buffer pH 7.4 was used and which was
homogenized in 100 mM sodium phosphate buffer pH 7.4 containing 20% of
glycerol and then stored at -80° C.
The microsomes were incubated for 15 minutes at 37° C. in 1 ml containing 35 mM Tris-HCl buffer/0.1M KCl pH 7.4, 1 mg of microsomal protein, 5 microliters of ethanol containing or not containing the test product and 250 microliters of ascorbate solution in the Tris buffer (0.5 mM final), after the addition of 250 microliters of ferrous sulfate prepared immediately before use in the Tris buffer ([…]). The reaction was stopped by adding 2 ml of a 1M solution of trichloroacetic acid in 0.25M hydrochloric acid containing 0.4% of thiobarbituric acid. The mixture was heated to 85° C. for 25 minutes, cooled and centrifuged for 15 minutes at 3500 rpm, and the OD of the supernatant fraction was then read at 535 nm. The reaction blanks in the absence of Fe^++ were performed at the same time and the percentage inhibition was calculated as above.

[4] = system: ferric nitrilotriacetate (NTA-Fe+++) intoxication in rats; experiment: Detoxifying activity in vivo: mortality induced in rats by ferric nitrilotriacetate (NTA-Fe+++) intoxication; design: species or system Wistar male rat; conditions: 5 mg/kg i.p. 30 minutes before 15 mg/kg of poison (NTA-Fe+++, mg of iron/kg); none alive after 4 hours with poison alone
Experimental: The detoxifying activity after intoxication associated with lipid peroxidaton was tested for by measurement of the mortality induced in rats by ferric nitrilotriacetate (NTA-Fe^+++) intoxication. A solution of NTA-Fe^+++ complex was prepared immediately before use, suspended in sesame oil and injected intraperitoneally at doses of 5, 10 or 15 mg of iron/kg of body weight into non-fasted Wistar male rats weighing approximately 200 g. The survival rate of rats which received a prior injection of the test product at a dose of 5 mg/kg intraperitoneally, 30 minutes before the injection of 15 mg/kg of poison was determined. Whereas none of the animals treated with the poison alone survived after 4 hours, 20% of the animals pretreated with the product of Example 2 were still alive 15 days later.

[5] = system: arachidonic acid-induced plantar oedema; experiment: Arachidonic acid-induced plantar oedema (anti-inflammatory activity); format: in vivo, Sprague-Dawley male rat; conditions: for Change in volume of the foot 1 hour after AA (mean ± s.e.m.): controls 0.58 ± 0.03; for % inhibition: oedema, relative to control
Experimental: The anti-inflammatory activity was assessed in vivo by measurement of the anti-oedematous activity in the test of arachidonic acid-induced plantar oedema described by Di Martino et al. (Agents and Actions, 1987 21 3/4 303). The experimental animals were Sprague-Dawley strain SPF male rats weighing 150 to 170 g (Iffa Credo).
This test was performed on groups of 8 male rats weighing 130 to 150 g, fasted for 16 hours. Arachidonic acid was injected under the plantar aponeurosis of one hindfoot at a dose of 0.2 mg in a volume of 0.1 ml. The volume of the foot was measured using a water plethysmometer before and 1 hour after the injection of arachidonic acid. The difference between these two volumes represented the degree of inflammation. The animals were treated with the test products or the vehicle alone at the same time as the injection of arachidonic acid. The test products were administered orally in a volume of 4 ml/kg after being suspended in 0.5% strength methyl cellulose. All the experiments were carried out with dexamethasone administered orally at a dose of 0.5 mg/kg as reference product.
The results were expressed as a change in volume of the foot 1 hour after the injection of arachidonic acid (AA) in the absence or in the presence of the test product administered at different doses. Statistical interpretation of the results was performed according to Dunnett's test (*p<[…]) or according to the Mann-Whitney test (^o p<0.05-^oo p<0.01). For each dose administered orally, the percentage inhibition of the oedema by the test product was calculated relative to the control.

Compound `CN(C)c1ccc([C@H]2C[C@@]3(C)[C@@H](CC[C@@]3(O)C#CCN3CCN(c4cc(N5CCCC5)nc(N5CCCC5)n4)CC3)[C@@H]3CCC4=CC(=O)CCC4=C32)cc1` [Example 1, 11β-[4-(dimethylamino)-phenyl]-17α-[3-{4-[2,6-bis(1-pyrrolidinyl)-4-pyrimidinyl]-1-piperazinyl}-1-propynyl]-Δ^4,9-estradiene-17β-ol-3-one] has a percentage of inhibition ([1]; 1 × 10^-5 M) of 72 ± 3, a percentage of inhibition ([1]; 1 × 10^-6 M) of 14 ± 4 and a percentage of inhibition ([1]; 5 × 10^-6 M) of 58 ± 5. For the same compound, the percentage of inhibition ([2]; 1 × 10^-4 M) was 42.6 ± 7.5, the percentage of inhibition ([2]; 1 × 10^-5 M) was 9.9 ± 6.4 and the percentage of inhibition ([2]; 5 × 10^-4 M) was 47.5 ± 8.8. For the same compound, the percentage of inhibition ([3]; 1 × 10^-5 M) was 76 ± 0.8, the percentage of inhibition ([3]; 1 × 10^-6 M) was 4 ± 0.6 and the percentage of inhibition ([3]; 5 × 10^-6 M) was 47.
For `CN(C)c1ccc([C@H]2C[C@@]3(C)[C@@H](CC[C@@]3(O)C#CCN3CCN(c4cc(N5CCCC5)nc(N5CCCC5)n4)CC3)[C@@H]3CCC4=CC(=O)CCC4=C32)cc1` [Example 2, 11β-[4-(dimethylamino)-phenyl]-17α-[3-{4-[2,6-bis(1-pyrrolidinyl)-4-pyrimidinyl]-1-piperazinyl}-1-propynyl]-Δ^4,9-estradien-17β-ol-3-one methane sulfonate], the “animals still alive 15 days later (survival rate)” value [4] was 20%, the percentage of inhibition ([1]; 1 × 10^-5 M) was 91 ± 3 and the percentage of inhibition ([1]; 1 × 10^-6 M) was 28 ± 3. The percentage of inhibition ([1]; 5 × 10^-6 M) was 82 ± 3, the percentage of inhibition ([2]; 1 × 10^-4 M) was 59.6 ± 4.4 and the percentage of inhibition ([2]; 1 × 10^-5 M) was 16.0 ± 5.0. The percentage of inhibition ([2]; 5 × 10^-4 M) was 60.9 ± 3.3, the percentage of inhibition ([3]; 1 × 10^-5 M) was 98.5 and the percentage of inhibition ([3]; 1 × 10^-6 M) was 48 ± 1. The percentage of inhibition ([3]; 5 × 10^-6 M) was 91.
For `CCN(CC)c1ccc(N2CCN(CC#C[C@]3(O)CC[C@H]4[C@@H]5CCC6=CC(=O)CCC6=C5[C@@H](c5ccc(N(C)C)cc5)C[C@@]43C)CC2)nc1N(CC)CC` [Example 3, 11β-[4-(dimethylamino)-phenyl]-17α-[3-{4-[5,6-bis(diethylamino)-2-pyridyl]-1-piperazinyl}1-propynyl]-Δ^4,9-estradiene-17β-ol-3-one], the “Change in volume of the foot 1 hour after AA (mean ± s.e.m.)” value (shortened to “Change in volume of the foot 1 hour”) ([5]; 1 mg/kg oral) was 0.48 ± 0.05 cm^3, the “Change in volume of the foot 1 hour” value ([5]; 4 mg/kg oral) was 0.43 ± 0.06 cm^3 and the “Change in volume of the foot 1 hour” value ([5]; 20 mg/kg oral) was 0.40 ± 0.04 cm^3. The anti-inflammatory activity ([5]; low doses, oral) was “significant anti-inflammatory activity”, the “% inhibition” value ([5]; 1 mg/kg oral) was -17% and the “% inhibition” value ([5]; 4 mg/kg oral) was -27%. For the same compound, the “% inhibition” value ([5]; 20 mg/kg oral) was -31%, the percentage of inhibition ([1]; 1 × 10^-5 M) was 97 and the percentage of inhibition ([1]; 1 × 10^-6 M) was 40 ± 1. It also gave a percentage of inhibition ([1]; 5 × 10^-6 M) of 88 ± 2, a percentage of inhibition ([2]; 1 × 10^-4 M) of 49.2 ± 2.3 and a percentage of inhibition ([2]; 1 × 10^-5 M) of 32.6 ± 10.1. For the same compound, the percentage of inhibition ([2]; 5 × 10^-4 M) was 59.1 ± 3.2, the percentage of inhibition ([3]; 1 × 10^-5 M) was 99.9 and the percentage of inhibition ([3]; 1 × 10^-6 M) was 78.2 ± 0.9. For the same compound, the percentage of inhibition ([3]; 1 × 10^-7 M) was 5.2 ± 1 and the percentage of inhibition ([3]; 5 × 10^-6 M) was 99.5.
Compound `CCN(CC)c1ccc(N(CC)CC)c(N2CCN(CC#C[C@]3(O)CC[C@H]4[C@@H]5CCC6=CC(=O)CCC6=C5[C@@H](c5ccc(N(C)C)cc5)C[C@@]43C)CC2)n1` [Example 4, 17α-[3-{4-[3,6-bis(diethylamino)-2-pyridyl]-1]-piperazinyl}-1-propynyl]-11β-[4-(dimethylamino)-phenyl-Δ^4,9-estadiene-17β-ol-3-one] has a percentage of inhibition ([1]; 1 × 10^-6 M) of 48 ± 3, a percentage of inhibition ([1]; 5 × 10^-6 M) of 85 ± 2 and a percentage of inhibition ([2]; 1 × 10^-4 M) of 58.9 ± 10.9. For the same compound, the percentage of inhibition ([2]; 1 × 10^-5 M) was 48.6 ± 6.2, the percentage of inhibition ([2]; 5 × 10^-4 M) was 71.8 ± 10.2 and the percentage of inhibition ([3]; 1 × 10^-5 M) was 99.5. It also gave a percentage of inhibition ([3]; 1 × 10^-6 M) of 70 ± 2, a percentage of inhibition ([3]; 1 × 10^-7 M) of 0 ± 2 and a percentage of inhibition ([3]; 5 × 10^-6 M) of 99.4.
